Experimental findings from patent US12398151B2, “Sumo inhibitor compounds and uses thereof” (SUVALENT THERAPEUTICS, INC., priority 2019, dated 2025) are described below.

A value given as a limit tells only on which side of the number the result lay.

Test [1] has as its target T1, SUMO E1 (Homo sapiens, UniProt Q9UBT2).
T1 sequence (Q9UBT2 1-640): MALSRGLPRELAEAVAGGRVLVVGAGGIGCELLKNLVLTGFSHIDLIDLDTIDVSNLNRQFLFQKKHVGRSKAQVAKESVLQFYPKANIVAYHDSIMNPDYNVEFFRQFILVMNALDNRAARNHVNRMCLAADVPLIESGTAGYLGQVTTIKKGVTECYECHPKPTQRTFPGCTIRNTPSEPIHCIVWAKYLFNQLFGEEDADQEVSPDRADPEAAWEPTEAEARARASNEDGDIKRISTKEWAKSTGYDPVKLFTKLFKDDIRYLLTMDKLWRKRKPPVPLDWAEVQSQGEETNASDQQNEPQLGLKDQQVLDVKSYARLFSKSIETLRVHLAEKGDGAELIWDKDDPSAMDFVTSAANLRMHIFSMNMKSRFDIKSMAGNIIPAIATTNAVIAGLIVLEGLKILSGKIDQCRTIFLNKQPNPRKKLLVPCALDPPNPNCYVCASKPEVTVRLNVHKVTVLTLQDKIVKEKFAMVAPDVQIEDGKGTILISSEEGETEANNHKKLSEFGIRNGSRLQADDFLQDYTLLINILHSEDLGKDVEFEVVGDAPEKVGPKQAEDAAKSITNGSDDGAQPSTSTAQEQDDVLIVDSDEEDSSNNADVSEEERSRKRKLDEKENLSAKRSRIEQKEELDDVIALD
T1 sequence (Q9UBE0 1-346 partner): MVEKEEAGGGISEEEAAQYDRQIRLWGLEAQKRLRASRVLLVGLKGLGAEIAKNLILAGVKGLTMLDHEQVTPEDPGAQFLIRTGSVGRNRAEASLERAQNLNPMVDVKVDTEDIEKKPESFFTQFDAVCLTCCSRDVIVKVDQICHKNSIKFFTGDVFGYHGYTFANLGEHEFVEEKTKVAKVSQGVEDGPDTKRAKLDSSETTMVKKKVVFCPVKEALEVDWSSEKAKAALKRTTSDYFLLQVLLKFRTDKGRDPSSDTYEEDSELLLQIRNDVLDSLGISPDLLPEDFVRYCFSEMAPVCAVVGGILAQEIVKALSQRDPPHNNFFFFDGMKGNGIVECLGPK
The test is described as follows: SUMO E1 inhibition: UBC9-SUMO1 conjugation by SDS gel electrophoresis. Format: biochemical. The conditions noted are these: 15 uM compound, 15 min preincubation; read-out: SUMO E1 percent inhibition of adduct formation. Summed up: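 SUMO E1 was preincubated with compound for a set time, then UBC9, SUMO1 and ATP were added and incubated at 37 °C. After Laemmli quench, UBC9-SUMO1 adduct was resolved by SDS gel; percent inhibition from band intensity versus no-compound control, reported with compound concentration (μM) and preincubation time (min).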

Test [2] has as its target T2, Atg7 (Homo sapiens, UniProt O95352).
T2 sequence (O95352 1-703): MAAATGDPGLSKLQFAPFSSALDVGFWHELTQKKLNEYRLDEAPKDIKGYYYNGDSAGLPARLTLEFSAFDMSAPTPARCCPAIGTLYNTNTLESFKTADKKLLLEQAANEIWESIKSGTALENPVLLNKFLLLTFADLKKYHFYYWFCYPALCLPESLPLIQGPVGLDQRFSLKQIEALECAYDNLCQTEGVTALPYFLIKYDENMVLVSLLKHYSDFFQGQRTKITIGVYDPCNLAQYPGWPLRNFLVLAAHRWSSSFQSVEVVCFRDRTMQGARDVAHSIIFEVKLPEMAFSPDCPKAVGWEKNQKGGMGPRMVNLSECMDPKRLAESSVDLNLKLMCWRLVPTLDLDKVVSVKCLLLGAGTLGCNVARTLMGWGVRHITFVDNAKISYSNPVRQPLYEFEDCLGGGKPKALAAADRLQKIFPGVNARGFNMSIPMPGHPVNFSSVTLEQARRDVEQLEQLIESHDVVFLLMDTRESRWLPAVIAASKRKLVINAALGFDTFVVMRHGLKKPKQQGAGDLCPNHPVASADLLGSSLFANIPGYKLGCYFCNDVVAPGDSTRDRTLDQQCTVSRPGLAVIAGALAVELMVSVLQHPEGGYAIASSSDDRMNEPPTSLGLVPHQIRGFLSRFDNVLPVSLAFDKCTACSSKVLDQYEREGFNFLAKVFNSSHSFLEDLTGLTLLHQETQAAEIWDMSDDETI
The test is described as follows: Atg7 activating enzyme (E1) inhibition. Format: biochemical. The conditions noted are these: 25 uM compound, 60 min preincubation; read-out: Atg7 percent inhibition of adduct formation. Put shortly:
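Compounds were assessed for their ability to inhibit the Atg7 activating enzyme (E1) following previously published methods and protocols. The E1 enzyme was preincubated with compound, and activity was expressed as the percent inhibition of adduct formation, reported together with the compound concentration in uM and the E1–compound preincubation time in minutes.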

With `C=CC(=O)N1Cc2sccc2[C@@H](c2ccc(OC)cc2)C1` [Compound 155], in test [1], the inhibition at 15 µM is under 1%. Also, the inhibition at 25 µM in test [2] was under 1%.
